Consider 18 compounds from US20240025919A1, “AZA-TETRACYCLIC OXAZEPINE COMPOUNDS AND USES THEREOF” (Genentech, Inc., priority 2022, published 2024).

The structures appear in SMILES notation.

In one assay the target is KRAS G12D (Homo sapiens (Human), UniProt P01116, G12D). Nature of the assay: KRAS G12D LoEnz Biochemical Assay, BODIPY-GDP Exchange TR-FRET (SOS1-mediated nucleotide exchange). As to conditions: read-out: KRas (G12D) GDP HTRF IC50.
The target in a further assay is KRAS WT (Homo sapiens (Human), UniProt P01116). Nature of the assay: KRAS WT Biochemical Assay, BODIPY-GDP Exchange TR-FRET (Example 502; 0.06 nM KRAS WT, 15 nM GDP, 300 nM SOS1, 120-minute incubation). As to conditions: read-out: KRas HTRF IC50. The method, boiled down:
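IC50 from a 4-parameter Hill fit of percent inhibition, itself the TR-FRET 520/490 nm ratio scaled between DMSO and a fully inhibiting control. Reaction: 300 nM SOS1 and 300 nM BODIPY-GDP added to preformed 0.06 nM KRAS WT/15 nM GDP/Tb-streptavidin complex; 120 min incubation; pH 7.5 HEPES, MgCl2, DTT.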

Chain of KRAS WT (P01116-2 other isoform, or with tags, fused parts or gaps): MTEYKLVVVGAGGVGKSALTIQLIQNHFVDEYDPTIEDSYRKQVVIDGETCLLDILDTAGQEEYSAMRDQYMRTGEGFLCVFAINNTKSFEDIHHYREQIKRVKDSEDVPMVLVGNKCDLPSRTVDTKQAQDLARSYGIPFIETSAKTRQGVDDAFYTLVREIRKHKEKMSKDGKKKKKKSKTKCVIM
Chain of KRAS G12D (P01116-2 other isoform, or with tags, fused parts or gaps G12D): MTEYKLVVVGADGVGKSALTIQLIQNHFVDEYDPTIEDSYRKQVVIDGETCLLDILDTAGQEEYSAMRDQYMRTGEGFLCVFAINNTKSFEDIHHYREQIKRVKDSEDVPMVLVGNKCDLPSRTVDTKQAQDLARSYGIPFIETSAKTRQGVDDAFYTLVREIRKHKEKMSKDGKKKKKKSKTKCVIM

As for `C[C@@H]1Oc2nc(-c3cc(N)cc(F)c3C(F)(F)F)c(F)c3nc(OC[C@@H]4CC[C@H]5COCCN54)nc(c23)N2C[C@H]3CC[C@H](N3)[C@@H]12` [Compound 77, 3-Fluoro-5-((5S,5aS,6S,9R)-1-fluoro-12-(((6S,8aS)-hexahydro-1H-pyrrolo[2,1-c][1,4]oxazin-6-yl)methoxy)-5-methyl-5a,6,7,8,9,10-hexahydro-5H-4-oxa-3,10a,11,13,14-pentaaza-6,9-methanonaphtho[1,8-ab]heptalen-2-yl)-4-(trifluoromethyl)aniline], the 50% inhibitory concentration (IC50) was 0.24 nM at KRAS G12D and 21.1 nM on KRAS WT.
In the case of `Cc1c(F)c(N)cc(-c2nc3c4c(nc(OC[C@@]56CCCN5CCN(C)C6=O)nc4c2F)N2C[C@H]4CC[C@H](N4)[C@H]2[C@H](C)O3)c1C(F)(F)F` (single isomer, unassigned) [137 (isomer 1)], the IC50 at KRAS G12D was 2.31 nM; on KRAS WT it was 283 nM.
For `Cc1cc2[nH]ncc2c(-c2nc3c4c(nc(OC[C@@]56CCCN5C[C@H](F)C6)nc4c2F)N2C[C@H]4CC[C@H](N4)[C@H]2[C@H](C)O3)c1Cl` [Compound 176, (5S,5aS,6S,9R)-2-(5-Chloro-6-methyl-1H-indazol-4-yl)-1-fluoro-12-(((2R,7aS)-2-fluorotetrahydro-1H-pyrrolizin-7a(5H)-yl)methoxy)-5-methyl-5a,6,7,8,9,10-hexahydro-5H-4-oxa-3,10a,11,13,14-pentaaza-6,9-methanonaphtho[1,8-ab]heptalene], the figures for the half-maximal inhibitory concentration (IC50) at KRAS G12D and at KRAS WT were 2.8 nM and 809 nM, respectively.
Consider `Cc1c(F)c(N)cc(-c2nc3c4c(nc(OC[C@]5(CCF)CCCN5C)nc4c2F)N2C[C@H]4CC[C@H](N4)[C@H]2[C@H](C)O3)c1C(F)(F)F` (single isomer, unassigned) [127 (isomer 2)], for which the values for the IC50 at KRAS G12D and on KRAS WT were 0.19 nM and 37.7 nM, respectively.
In the case of `Cc1c(F)c(N)cc(-c2nc3c4c(nc(OC[C@@]56CCCN5C[C@H](F)C6)nc4c2F)N2C[C@H]4CC[C@H](N4)[C@H]2[C@H](C)O3)c1S(C)(=O)=O` [Compound 180, 2-Fluoro-5-((5S,5aS,6S,9R)-1-fluoro-12-(((2R,7aS)-2-fluorotetrahydro-1H-pyrrolizin-7a(5H)-yl)methoxy)-5-methyl-5a,6,7,8,9,10-hexahydro-5H-4-oxa-3,10a,11,13,14-pentaaza-6,9-methanonaphtho[1,8-ab]heptalene-2-yl)-3-methyl-4-(methylsulfonyl)aniline], the 50% inhibitory concentration (IC50) on KRAS G12D is 17.4 nM; at KRAS WT, 2740 nM.
In the case of `Cc1c(F)c(N)cc(-c2nc3c4c(nc(OCC5(CN6CCO[C@@H](CF)C6)CC5)nc4c2F)N2C[C@H]4CC[C@H](N4)[C@H]2[C@H](C)O3)c1C(F)(F)F` [Compound 172, 2-Fluoro-5-((5S,5aS,6S,9R)-1-fluoro-12-((1-(((R)-2-(fluoromethyl)morpholino)methyl)cyclopropyl)methoxy)-5-methyl-5a,6,7,8,9,10-hexahydro-5H-4-oxa-3,10a,11,13,14-pentaaza-6,9-methanonaphtho[1,8-ab]heptalen-2-yl)-3-methyl-4-(trifluoromethyl)aniline], the values for the IC50 at KRAS G12D and at KRAS WT were 0.24 nM and 11.1 nM, respectively.
Regarding `Cc1c(F)c(N)cc(-c2nc3c4c(nc(OC[C@@]56CCCN5C[C@H](F)C6)nc4c2F)N2C[C@H]4CC[C@H](N4)[C@H]2[C@H](C)O3)c1CC(F)F` [Compound 75, 4-(2,2-Difluoroethyl)-2-fluoro-5-((5S,5aS,6S,9R)-1-fluoro-12-(((2R,7aS)-2-fluorotetrahydro-1H-pyrrolizin-7a(5H)-yl)methoxy)-5-methyl-5a,6,7,8,9,10-hexahydro-5H-4-oxa-3,10a,11,13,14-pentaaza-6,9-methanonaphtho[1,8-ab]heptalen-2-yl)-3-methylaniline], the 50% inhibitory concentration (IC50) at KRAS G12D worked out at 0.13 nM; at KRAS WT it was 11.8 nM.
`C[C@@H]1Oc2nc(-c3cccc4ccc(N)nc34)c(F)c3nc(OC[C@@]45CCCN4C[C@H](F)C5)nc(c23)N2C[C@H]3CC[C@H](N3)[C@@H]12` [Compound 114, 8-((5S,5aS,6S,9R)-1-Fluoro-12-(((2R,7aS)-2-fluorotetrahydro-1H-pyrrolizin-7a(5H)-yl)methoxy)-5-methyl-5a,6,7,8,9,10-hexahydro-5H-4-oxa-3,10a,11,13,14-pentaaza-6,9-methanonaphtho[1,8-ab]heptalen-2-yl)quinolin-2-amine]: the results for the IC50 on KRAS G12D and at KRAS WT were 135 nM and 36700 nM, respectively.
On to `Cc1c(F)c(N)cc(-c2nc3c4c(nc(OCC56C[C@@H](F)CN5C[C@H](F)C6)nc4c2F)N2C[C@H]4CC[C@H](N4)[C@H]2[C@H](C)O3)c1C(F)(F)F` [Compound 140, 5-((5S,5aS,6S,9R)-12-(((2R,6R)-2,6-Difluorotetrahydro-1H-pyrrolizin-7a(5H)-yl)methoxy)-1-fluoro-5-methyl-5a,6,7,8,9,10-hexahydro-5H-4-oxa-3,10a,11,13,14-pentaaza-6,9-methanonaphtho[1,8-ab]heptalen-2-yl)-2-fluoro-3-methyl-4-(trifluoromethyl)aniline], for which the figures for the IC50 at KRAS G12D and on KRAS WT were 0.14 nM and 18.4 nM, respectively.
Take `Cc1c(F)c(N)cc(-c2nc3c4c(nc(OCC5(CN6CC7(COC7)C6)CC5)nc4c2F)N2C[C@H]4CC[C@H](N4)[C@H]2[C@H](C)O3)c1C(F)(F)F` [Compound 174, 5-((5S,5aS,6S,9R)-12-((1-((2-Oxa-azaspiro[3.3]heptan-6-yl)methyl)cyclopropyl)methoxy)-1-fluoro-5-methyl-5a,6,7,8,9,10-hexahydro-5H-4-oxa-3,10a,11,13,14-pentaaza[6,9]methanonaphtho[1,8-ab]heptalene-2-yl)-2-fluoro-3-methyl-4-(trifluoromethyl)aniline]: the figures for the half-inhibitory concentration (IC50) at KRAS G12D and at KRAS WT were 3.39 nM and 3.04 nM, respectively.
The like results for `Cc1c(F)c(N)cc(-c2nc3c4c(nc(OC[C@@]5(CC(F)F)CCCN5C)nc4c2F)N2C[C@H]4CC[C@H](N4)[C@H]2[C@H](C)O3)c1C(F)(F)F` (single isomer, unassigned) [150 (isomer 1)] were, in that order, 0.18 nM and 27.5 nM.
Turning to `Cc1c(F)c(N)cc(-c2nc3c4c(nc(OC[C@@H]5CC[C@@H]6CC(C(=O)N(C)C)CCN65)nc4c2F)N2C[C@H]4CC[C@H](N4)[C@H]2[C@H](C)O3)c1C(F)(F)F` (single isomer, unassigned) [133 (isomer 3)], the results for the IC50 on KRAS G12D and at KRAS WT were 0.14 nM and 23.3 nM, respectively.
On to `Cc1c(F)c(N)cc(-c2nc3c4c(nc(OC[C@H]5CC(F)(F)CN5C)nc4c2F)N2C[C@H]4CC[C@H](N4)[C@H]2[C@H](C)O3)c1C(F)(F)F` [Compound 66, 5-((5S,5aS,6S,9R)-12-(((R)-4,4-difluoro-1-methylpyrrolidin-2-yl)methoxy)-1-fluoro-5-methyl-5a,6,7,8,9,10-hexahydro-5H-4-oxa-3,10a,11,13,14-pentaaza-6,9-methanonaphtho[1,8-ab]heptalen-2-yl)-2-fluoro-3-methyl-4-(trifluoromethyl)aniline], for which the IC50 stood at 2.29 nM at KRAS G12D and 274 nM at KRAS WT.
Turning to `Cc1c(F)c(N)cc(-c2nc3c4c(nc(OCC5(CN6CCO[C@H](C)C6)CC5)nc4c2F)N2C[C@H]4CC[C@H](N4)[C@H]2[C@H](C)O3)c1C(F)(F)F` [Compound 168, 2-Fluoro-5-((5S,5aS,6S,9R)-1-fluoro-5-methyl-12-((1-(((R)-2-methylmorpholino)methyl)cyclopropyl)methoxy)-5a,6,7,8,9,10-hexahydro-5H-4-oxa-3,10a,11,13,14-pentaaza-6,9-methanonaphtho[1,8-ab]heptalen-2-yl)-3-methyl-4-(trifluoromethyl)aniline], the IC50 was determined as 0.12 nM at KRAS G12D and 1.68 nM at KRAS WT.
Turning to `Cc1c(F)c(N)cc(-c2nc3c4c(nc(OC[C@@H](F)CN5CC(CO)(CO)C5)nc4c2F)N2C[C@H]4CC[C@H](N4)[C@H]2[C@H](C)O3)c1C(F)(F)F` [Compound 146], the IC50 at KRAS G12D turned out to be 0.76 nM; at KRAS WT it was 114 nM.
`C[C@@H]1Oc2nc(-c3cc(N)c(F)c(Cl)c3C(F)(F)F)c(F)c3nc(OC[C@@]45CCCN4C[C@H](F)C5)nc(c23)N2C[C@H]3CC[C@H](N3)[C@@H]12` [Compound 104, 3-Chloro-2-fluoro-5-((5S,5aS,6S,9R)-1-fluoro-12-(((2R,7aS)-2-fluorotetrahydro-1H-pyrrolizin-7a(5H)-yl)methoxy)-5-methyl-5a,6,7,8,9,10-hexahydro-5H-4-oxa-3,10a,11,13,14-pentaaza-6,9-methanonaphtho[1,8-ab]heptalen-2-yl)-4-(trifluoromethyl)aniline]: the IC50 on KRAS G12D was 0.05 nM; at KRAS WT it was 0.71 nM.
Consider `Cc1c(F)c(N)cc(-c2nc3c4c(nc(OC[C@@H]5CO[C@H]6CC[N@]5C6)nc4c2F)N2C[C@H]4CC[C@H](N4)[C@H]2[C@H](C)O3)c1C(F)(F)F` [Compound 135, 5-((5S,5aS,6S,9R)-12-(((1R,2S,5S)-4-Oxa-1-azabicyclo[3.2.1]octan-2-yl)methoxy)-1-fluoro-5-methyl-5a,6,7,8,9,10-hexahydro-5H-4-oxa-3,10a,11,13,14-pentaaza-6,9-methanonaphtho[1,8-ab]heptalen-2-yl)-2-fluoro-3-methyl-4-(trifluoromethyl)aniline], for which the values for the concentration for half-maximal inhibition (IC50) on KRAS G12D and on KRAS WT were 0.71 nM and 143 nM, respectively.
As for `Cc1c(F)c(N)cc(-c2nc3c4c(nc(OCCCN5C[C@@H]6C[C@H]5CO6)nc4c2F)N2C[C@H]4CC[C@H](N4)[C@H]2[C@H](C)O3)c1C(F)(F)F` [Compound 164, 5-((5S,5aS,6S,9R)-12-(3-((1S,4S)-2-oxa-5-azabicyclo[2.2.1]heptan-5-yl)propoxy)-1-fluoro-5-methyl-5a,6,7,8,9,10-hexahydro-5H-4-oxa-3,10a,11,13,14-pentaaza-6,9-methanonaphtho[1,8-ab]heptalen-2-yl)-2-fluoro-3-methyl-4-(trifluoromethyl)aniline], the 50% inhibitory concentration (IC50) on KRAS G12D was 0.15 nM; on KRAS WT, 30.6 nM.
